Counter-ions that a name gives are not always drawn.
Legend:
hOGA = target: T1, hOGA (Homo sapiens, UniProt O60502); test: Inhibition assay against hOGA, resorufin N-acetyl-β-D-glucosaminide fluorescence; assay type: biochemical; conditions: 0.2 nM hOGA, 25 μM substrate, pH 7.1; Morrison Ki
T1 sequence (O60502 1-916): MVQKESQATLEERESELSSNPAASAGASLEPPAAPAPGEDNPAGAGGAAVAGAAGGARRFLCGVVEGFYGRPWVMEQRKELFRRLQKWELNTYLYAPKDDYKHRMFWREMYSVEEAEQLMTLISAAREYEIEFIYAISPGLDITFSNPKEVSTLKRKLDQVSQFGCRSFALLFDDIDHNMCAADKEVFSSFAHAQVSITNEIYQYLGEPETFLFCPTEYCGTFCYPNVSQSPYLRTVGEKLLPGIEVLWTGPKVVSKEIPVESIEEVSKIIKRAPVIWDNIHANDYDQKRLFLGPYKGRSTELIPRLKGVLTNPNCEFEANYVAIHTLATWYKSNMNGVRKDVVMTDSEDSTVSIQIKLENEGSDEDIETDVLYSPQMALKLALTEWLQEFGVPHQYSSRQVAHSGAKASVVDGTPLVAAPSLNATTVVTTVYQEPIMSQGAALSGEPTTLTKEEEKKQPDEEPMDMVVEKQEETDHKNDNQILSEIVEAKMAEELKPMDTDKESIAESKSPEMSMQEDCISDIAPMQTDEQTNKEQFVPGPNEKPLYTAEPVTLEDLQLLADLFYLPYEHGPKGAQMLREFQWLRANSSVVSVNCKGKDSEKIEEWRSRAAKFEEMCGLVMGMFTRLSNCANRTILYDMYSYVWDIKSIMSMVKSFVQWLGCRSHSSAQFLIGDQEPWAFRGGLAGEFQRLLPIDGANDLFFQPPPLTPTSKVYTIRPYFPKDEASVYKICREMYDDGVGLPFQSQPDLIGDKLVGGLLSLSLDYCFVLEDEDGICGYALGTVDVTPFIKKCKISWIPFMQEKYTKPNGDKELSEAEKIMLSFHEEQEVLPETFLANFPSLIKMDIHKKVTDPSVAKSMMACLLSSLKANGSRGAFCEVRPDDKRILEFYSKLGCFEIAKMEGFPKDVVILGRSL
Procedure: Inhibition Assays Against hOGA
Km=25 μM was measured with these conditions. Inhibition assays were run at 0.2 nM [hOGA] in the same buffer, in the presence or absence of various concentrations of inhibitors and at a fixed substrate concentration of 25 μM and 1% DMSO. First, inhibitor was serially diluted to the desired range of concentrations in 2% DMSO buffer. Next, 50 μL of inhibitor solutions at various concentrations in 2% DMSO Buffer was added to 50 μL of 0.8 nM enzyme and allowed to incubate at 25° C. for 5 minutes. 100 uL of 50 μM and 1% DMSO substrate was then added and reaction mixture was immediately mixed and aliquoted in 45 μL triplicates to a CORNING 384 well black plate. Fluorescence signal was measured continuously for 20 minutes at 37° C. in a BioTek Neo 2 Plate reader set at excitation and emission wavelengths of 572 and 610 nm, respectively. Max reaction rates for all inhibitor concentrations were calculated within Gen5 BioTek reader software. % Activity was subsequently calculated for each inhibitor concentration against the max reaction rate of uninhibited hOGA. GraphPad Prism 2016 was used to approximate the Morrison Ki values for each inhibitor.

[1] = target: T2, Recombinant Human Hexosaminidase A (HexA) (Homo sapiens, UniProt P06865); test: Inhibition assay against rhHexA, 4-methylumbelliferone-N-acetyl-β-D-glucosaminide fluorescence; assay type: biochemical; conditions: IC50 for lysosomal hHexA; NI = no inhibition detected at 200 μM
T2 construct: purchased R&D Systems 6237-GH-020
T2 sequence (P06865 89-529): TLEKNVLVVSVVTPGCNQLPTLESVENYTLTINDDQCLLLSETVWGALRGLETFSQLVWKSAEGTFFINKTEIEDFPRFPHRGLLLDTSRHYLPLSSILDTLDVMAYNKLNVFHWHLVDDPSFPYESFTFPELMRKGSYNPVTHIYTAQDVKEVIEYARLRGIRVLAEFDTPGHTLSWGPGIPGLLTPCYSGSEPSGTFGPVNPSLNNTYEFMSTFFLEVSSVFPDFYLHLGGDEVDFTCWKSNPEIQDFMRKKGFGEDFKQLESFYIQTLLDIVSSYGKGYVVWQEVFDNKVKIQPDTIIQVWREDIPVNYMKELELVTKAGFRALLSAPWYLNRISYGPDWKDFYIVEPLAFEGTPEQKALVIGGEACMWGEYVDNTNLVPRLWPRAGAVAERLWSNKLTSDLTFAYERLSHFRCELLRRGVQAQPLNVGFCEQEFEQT
Procedure: Inhibition Assays Against rhHexA
Human Hexosaminidase A (HexA) enzyme, purchased from R&D Systems (cat# 6237-GH-020), were determined by measuring the fluorescent signal corresponding to the rate of hydrolytic activity against the commercially available artificial substrate, 4-Methylumbelliferone-N-acetyl-β-D-glucosaminide. HexA activity assays were performed in a buffer of 100 mM sodium citrate, 250 NaCl, pH 4.5 and 1.0 nM [HexA], then stopped after 20 minutes with a solution of 1.0 M Tris, pH 9.5 to enhance fluorescent signal. Preliminary experiments have shown that reaction rates are linear for 20 minutes after substrate addition, and that 1.0 M Tris at pH 9.5 is sufficient for stopping activity, as signal is stable after stopping. Inhibition assays were run in the presence or absence of various concentrations of inhibitors and at a fixed substrate concentration of 100 μM and 1% DMSO. First, inhibitor was serially diluted to the desired range of concentrations in 2% DMSO buffer. Next, 25 μL, of inhibitor solutions at various concentrations in 2% DMSO Buffer was added to 25 μL, of 4.0 nM enzyme and allowed to incubate at 25° C. for 5 minutes. 50 μL of 200 μM and 1% DMSO substrate was then added and allowed to react for 20 minutes. 100 μL of stop solution was added to reaction mixture, and immediately mixed and aliquoted in 45 μL triplicates to a CORNING 384 well black plate. Fluorescence signal was measured in a BioTek Neo 2 Plate reader set at excitation and emission wavelengths of 355 and 450 nm, respectively. % Activity was subsequently calculated for each inhibitor concentration against the fluorescence signal of uninhibited HexA. […]

Compound	Ki (hOGA) [µM]	IC50 [1] [µM]
CC(C)C(=O)N[C@H]1CN2/C(=N/Cc3ccccc3)SC[C@@H]2[C@@H](O)[C@@H]1O [Compound 16, 2-Isobutanamido-5-N,6-S-(N′-benzyliminomethylidene)-1,2-dideoxy-6-thionojirimycin Hydrochloride]	0.888	> 200
CCCC(=O)N[C@H]1CN2/C(=N/Cc3ccccc3)SC[C@@H]2[C@@H](O)[C@@H]1O [Compound 17, 2-Butanamido-5-N,6-S-(N′-benzyliminomethylidene)-1,2-dideoxy-6-thionojirimycin]	0.337	> 200
CCNC(=S)N[C@H]1CN2/C(=N/Cc3ccccc3)SC[C@@H]2[C@@H](O)[C@@H]1O [Compound 18, 2-Ethylthioureido-5-N,6-S-(N′-benzyliminomethylidene)-1,2-dideoxy-6-thionojirimycin]	1.06	> 200
CCCNC(=S)N[C@H]1CN2/C(=N/Cc3ccccc3)SC[C@@H]2[C@@H](O)[C@@H]1O [Compound 19, 2-Propylthioureido-5-N,6-S-(N′-benzyliminomethylidene)-1,2-dideoxy-6-thionojirimycin]	0.762	> 200

Compounds with a lower Ki (hOGA), results first:

Ki (hOGA) [µM]	IC50 [1] [µM]	Compound
0.00797	> 200	CCC(=O)N[C@H]1CN2/C(=N/Cc3ccccc3)SC[C@@H]2[C@@H](O)[C@@H]1O [Compound 13, 2-Propanamido-5-N,6-S-(N′-benzyliminomethylidene)-1,2-dideoxy-6-thionojirimycin Hydrochloride]
0.000701	> 200	CCC(=O)N[C@H]1CN2/C(=N/Cc3cccc4ccccc34)SC[C@@H]2[C@@H](O)[C@@H]1O [Compound 14, 2-Propionamido-5-N,6-S-(N′-1-naphthylmethyliminomethylidene)-1,2-dideoxy-6-thionojirimycin hydrochloride]
0.000657	> 200	CCC(=O)N[C@H]1CN2/C(=N/Cc3ccc4[nH]ccc4c3)SC[C@@H]2[C@@H](O)[C@@H]1O [Compound 15, 2-Propionamido-5-N,6-S-(N′-5-indolylmethyliminomethylidene)-1,2-dideoxy-6-thionojirimycin hydrochloride]

From patent US20230391796A1, “GLYCOSIDASE INHIBITORS AND USES THEREOF” (UNIVERSIDAD DE SEVILLA (US) -UNIVERSITY OF SEVILLE (US), priority 2020, published 2023)
